Patent US20250064891A1, “HOST PROTEASES ESSENTIAL FOR PARAINFLUENZA SPREAD IN THE HUMAN LUNG: POTENTIAL TARGETS FOR ANTIVIRAL INTERVENTIONS” (The Trustees of Columbia University in the City of New York, priority 2022, published 2025)
Entries after “also recorded” stand apart in the source; their conditions may differ.

What was measured:
[1] = tested on: serine proteases, such as TMPRSS2; assay: Inhibition of serine proteases (statement without method)
HPIV3 [2] = assay: HPIV3 titer (infectious viral particles) released by infected Calu-3 cells / HAE treated with protease inhibitor; type: cell-based, human parainfluenza virus 3 (HPIV3); details: for production of infectious viral particles / viral spread (HPIV3 titer): Calu-3 cell culture media and HAE apical washes 3 days after infection (FIG. 3); for viral titer: virions released by infected Calu-3 cells into the media (FIG. 8A)
Excerpt: Values are means and SEM from one biological replicate.

HPIV3 F = details: for HPIV3 F cleavage: Calu-3 cells and HAE inoculated with HPIV-3 F E108 or F K108, treated after inoculation (FIG. 3); for HPIV3 F E108 (F0) cleavage: Western blot of Calu-3 cell media (FIG. 8B)
Description: (A) Calu-3 cells and (B) HAE were inoculated with HPIV-3 F E108 (left) or HPIV-3 F K108 (right). After inoculation, cells were treated with the indicated concentrations of aprotinin or leupeptin. HPIV3 infected Calu-3 cell culture media and HAE apical wash resolved by reducing SDS-PAGE and immunoblotted with anti-HPIV3 F antibody. HPIV3 titer in cell culture media and HAE apical washes 3 days after infection. Values are means and SEM from 1-3 biological replicates.
Virions released by the infected cells into the media were titered. B) Western blotting for HPIV3 F in Calu-3 cell media.

HPIV3 [3] = assay: HPIV3 spread in intranasally infected cotton rats, viral titer of nasal tissue by plaque assay; details: intranasal nafamostat 3 mg/kg body weight daily, sacrificed 3 days after infection (FIG. 5)
Description: Viral titer (LogTCID50 per gram of nasal tissue) was determined by plaque assay. Values are means and SEM.

Row | Molecule | inhibition of serine proteases, such as TMPRSS2 [1] | production of infectious viral particles / viral spread (HPIV3 titer) (HPIV3 [2]) | viral titer (HPIV3 [2]) | HPIV3 F cleavage (HPIV3 F) | HPIV3 F E108 (F0) cleavage (HPIV3 F) | HPIV3 spread in vivo (viral titer, LogTCID50 per gram of nasal tissue) (HPIV3 [3])
1 | CN(C)C(=O)COC(=O)Cc1ccc(OC(=O)c2ccc(NC(=N)N)cc2)cc1 [camostat] | effective inhibitors of serine proteases |  |  |  |  | 
2 | aprotinin | effective inhibitors of serine proteases | inhibited viral spread; also recorded: reduces production of infectious viral particles | reduced viral titer; also recorded: dose-dependent reduction in viral titer | block HPIV3 F cleavage | reduced HPIV3 F E108 cleavage; also recorded: significant reduction in F0 cleavage | 
3 | N=C(N)c1ccc2cc(OC(=O)c3ccc(N=C(N)N)cc3)ccc2c1 [Nafamostat] |  |  |  |  |  | reduced HPIV3 spread in nasal tissue of cotton rats; also recorded: blocks HPIV3 spread in vivo
4 | CC(=O)N[C@@H](CC(C)C)C(=O)N[C@@H](CC(C)C)C(=O)N[C@H](C=O)CCCNC(=N)N [leupeptin] | effective inhibitors of serine proteases | inhibited viral spread; also recorded: reduces production of infectious viral particles | reduced viral titer | block HPIV3 F cleavage | reduced HPIV3 F E108 cleavage | 
